# In patent publication US20240016729A1, “INJECTABLE FORMULATIONS OF IBUDILAST” (MediciNova, Inc., priority 2022, published 2024):
# Experiments:
# [1] = Initial solubility screen with various excipients; assay type: physicochemical; conditions: for solubility at 24 h: fully dissolved after 24 h
# [2] = Follow-up solubility assessment (cosolvent mixtures, surfactants); assay type: physicochemical; conditions: thermodynamic from solid, ibudilast conc. 75 mg/mL
# Method: Solubility of ibudilast was assessed using cosolvent mixtures with and without water, increased surfactant concentrations, or a combination of surfactant and cosolvents as shown in the following table.
structure (smiles),measurement,setting,value
"CC(C)C(=O)c1c(C(C)C)nn2ccccc12 [ibudilast, 3-isobutyryl-2-isopropylpyrazolo[1,5-a]pyridine]",solubility,"[1]; aqueous buffer, thermodynamic from solid, acetate buffer pH 5, 50 mM, ibudilast conc. 5 mg/mL",0.175 mg/mL
same,solubility,"[1]; aqueous buffer, thermodynamic from solid, borate buffer pH 9, 50 mM, ibudilast conc. 5 mg/mL",0.171 mg/mL
same,solubility,"[1]; aqueous buffer, thermodynamic from solid, citrate buffer pH 3, 50 mM, ibudilast conc. 5 mg/mL",0.375 mg/mL
same,solubility,"[1]; aqueous buffer, thermodynamic from solid, phosphate buffer pH 7.5, 50 mM, ibudilast conc. 5 mg/mL",0.175 mg/mL
same,solubility,"[1]; aqueous with cosolvent or surfactant or cyclodextrin, thermodynamic from solid, HP-β-CD 10% w/v, ibudilast conc. 25 mg/mL",2.11 mg/mL
same,solubility,"[1]; aqueous with cosolvent or surfactant or cyclodextrin, thermodynamic from solid, HP-β-CD 30% w/v, ibudilast conc. 25 mg/mL",6.72 mg/mL
same,solubility,"[1]; aqueous with cosolvent or surfactant or cyclodextrin, thermodynamic from solid, Kolliphor ELP 5% w/v, ibudilast conc. 25 mg/mL",6.82 mg/mL
same,solubility at 24 h,"[1]; aqueous with cosolvent or surfactant or cyclodextrin, thermodynamic from solid, Kolliphor ELP 30% w/v, ibudilast conc. 25 mg/mL, solubility may be higher",28 mg/mL
same,solubility,"[1]; aqueous with cosolvent or surfactant or cyclodextrin, thermodynamic from solid, Kolliphor HS 15 5% w/v, ibudilast conc. 25 mg/mL",5.64 mg/mL
same,solubility,"[1]; aqueous with cosolvent or surfactant or cyclodextrin, thermodynamic from solid, Kolliphor HS 15 50% w/v, ibudilast conc. 25 mg/mL",22.8 mg/mL
same,solubility,"[1]; aqueous with cosolvent or surfactant or cyclodextrin, thermodynamic from solid, Kolliphor RH 40 5% w/v, ibudilast conc. 25 mg/mL",5.58 mg/mL
same,solubility,"[1]; aqueous with cosolvent or surfactant or cyclodextrin, thermodynamic from solid, Kolliphor RH 40 30% w/v, ibudilast conc. 25 mg/mL",29.5 mg/mL
same,solubility,"[1]; aqueous with cosolvent or surfactant or cyclodextrin, thermodynamic from solid, PEG 400 25% w/v, ibudilast conc. 25 mg/mL",1.11 mg/mL
same,solubility,"[1]; aqueous with cosolvent or surfactant or cyclodextrin, thermodynamic from solid, SBE-β-CD 10% w/v, ibudilast conc. 25 mg/mL",3.79 mg/mL
same,solubility,"[1]; aqueous with cosolvent or surfactant or cyclodextrin, thermodynamic from solid, SBE-β-CD 30% w/v, ibudilast conc. 25 mg/mL",11.9 mg/mL
same,solubility,"[1]; aqueous with cosolvent or surfactant or cyclodextrin, thermodynamic from solid, Tween 20 5% w/v, ibudilast conc. 25 mg/mL",3.21 mg/mL
same,solubility at 24 h,"[1]; aqueous with cosolvent or surfactant or cyclodextrin, thermodynamic from solid, Tween 20 50% w/v, ibudilast conc. 25 mg/mL, solubility may be higher",27.2 mg/mL
same,solubility,"[1]; aqueous with cosolvent or surfactant or cyclodextrin, thermodynamic from solid, Tween 80 5% w/v, ibudilast conc. 25 mg/mL",4.79 mg/mL
same,solubility,"[1]; aqueous with cosolvent or surfactant or cyclodextrin, thermodynamic from solid, Tween 80 30% w/v, ibudilast conc. 25 mg/mL",21.5 mg/mL
same,solubility,"[1]; aqueous with cosolvent or surfactant or cyclodextrin, thermodynamic from solid, ethanol 25% w/v, ibudilast conc. 25 mg/mL",4.15 mg/mL
same,solubility,"[1]; aqueous with cosolvent or surfactant or cyclodextrin, thermodynamic from solid, glycerol 25% w/v, ibudilast conc. 25 mg/mL",0.385 mg/mL
same,solubility,"[1]; organic solvent or mixture, thermodynamic from solid, PEG 400 100% w/v, more ibudilast added up to 50 mg/mL after 2 h tumbling, solubility may be higher",51.6 mg/mL
same,solubility,"[1]; organic solvent or mixture, thermodynamic from solid, ethanol 100% w/v, more ibudilast added up to 50 mg/mL after 2 h tumbling, solubility may be higher",50 mg/mL
same,solubility,"[1]; organic solvent or mixture, thermodynamic from solid, glycerol 100% w/v, ibudilast conc. 25 mg/mL",10.3 mg/mL
same,solubility,"[1]; organic solvent or mixture, thermodynamic from solid, propylene glycol 100% w/v, more ibudilast added up to 50 mg/mL after 2 h tumbling, solubility may be higher",52.9 mg/mL
same,solubility,"[1]; water, ibudilast conc. 5 mg/mL",0.186 mg/mL
same,solubility,"[2]; Kolliphor ELP/ethanol/water 5/50/45 % w/v, aqueous with cosolvent or surfactant or cyclodextrin",83.7 mg/mL
same,solubility,"[2]; Kolliphor ELP/propylene glycol/water 5/50/45 % w/v, aqueous with cosolvent or surfactant or cyclodextrin",19.4 mg/mL
same,solubility,"[2]; Kolliphor ELP/propylene glycol/water 30/50/20 % w/v, aqueous with cosolvent or surfactant or cyclodextrin",72.9 mg/mL
same,solubility,"[2]; Kolliphor ELP/water 30/70 % w/v, aqueous with cosolvent or surfactant or cyclodextrin",42.7 mg/mL
same,solubility,"[2]; Kolliphor ELP/water 80/20 % w/v, aqueous with cosolvent or surfactant or cyclodextrin, less than 5 mL added due to viscosity of medium",97.6 mg/mL
same,solubility,"[2]; PEG 400/water 50/50 % w/v cosolvent mixture, aqueous with cosolvent or surfactant or cyclodextrin, PEG 400/water 50/50 % w/v",9.22 mg/mL
same,solubility,"[2]; Tween 80/ethanol/water 5/50/45 % w/v, aqueous with cosolvent or surfactant or cyclodextrin",84 mg/mL
same,solubility,"[2]; Tween 80/propylene glycol/water 5/50/45 % w/v, aqueous with cosolvent or surfactant or cyclodextrin",14.8 mg/mL
same,solubility,"[2]; Tween 80/propylene glycol/water 30/50/20 % w/v, aqueous with cosolvent or surfactant or cyclodextrin",76.3 mg/mL
same,solubility,"[2]; Tween 80/water 30/70 % w/v, aqueous with cosolvent or surfactant or cyclodextrin",31.9 mg/mL
same,solubility,"[2]; Tween 80/water 80/20 % w/v, aqueous with cosolvent or surfactant or cyclodextrin, less than 5 mL added due to viscosity of medium",84.4 mg/mL
same,solubility,"[2]; aqueous with cosolvent or surfactant or cyclodextrin, propylene glycol/ethanol/water 50/25/25 % w/v",71.4 mg/mL
same,solubility,"[2]; ethanol/water 50/50 % w/v, aqueous with cosolvent or surfactant or cyclodextrin",72.6 mg/mL
same,solubility,"[2]; organic solvent or mixture, propylene glycol/PEG 400/glycerol 50/25/25 % w/v",68.7 mg/mL
same,solubility,"[2]; organic solvent or mixture, propylene glycol/ethanol/glycerol 50/25/25 % w/v",71.9 mg/mL
same,solubility,"[2]; propylene glycol/PEG 400/water 50/25/25 % w/v, aqueous with cosolvent or surfactant or cyclodextrin",31.3 mg/mL
same,solubility,"[2]; propylene glycol/water 50/50 % w/v, aqueous with cosolvent or surfactant or cyclodextrin",5.82 mg/mL
same,solubility,"[2]; propylene glycol/water 80/20 % w/v, aqueous with cosolvent or surfactant or cyclodextrin",37.3 mg/mL
